According to ChEMBL document CHEMBL1127074, “Novel hypotensive agents from Verbesina caracasana. 2. Synthesis and pharmacology of caracasanamide” (1993):
Values joined by “and” are separate entries in the source; they are usually repeats but may differ in a detail not shown here. Identical values can stand only once.

Experiments:
Rattus norvegicus [1] = test: Change in heart rate administered at 6400 ug/kg iv in anesthetized rats in presence of hexamethonium (5 mg/kg) (p<0.05); format: functional
Rattus norvegicus [2] = test: Change in heart rate administered at 3200 ug/kg iv in anesthetized rats in presence of spinalization under vagotomy (p<0.05); format: functional
Rattus norvegicus [3] = test: Tested for the change in systolic blood pressure administered at 3200 ug/kg intravenously in anesthetized rats in presence of hexamethonium (5 mg/kg) (p<0.05); format: functional, Artery
Rattus norvegicus [4] = test: Tested for the change in systolic blood pressure administered at 200 ug/kg intravenously in anesthetized rats; format: functional, Artery
Rattus norvegicus [5] = test: Maximum rate of rise of the left ventricular isovolumetric pressure (dP/dt) administered at 200 ug/kg iv in anesthetized rats; format: functional, Heart left ventricle
Rattus norvegicus [6] = test: Tested for the change in systolic blood pressure administered at 800 ug/kg intravenously in anesthetized rats in presence of phentolamine (2 mg/kg); format: functional, Artery
Rattus norvegicus [7] = test: Maximum rate of rise of the left ventricular isovolumetric pressure administered at 6400 ug/kg iv in anesthetized rats in presence of hexamethonium (5 mg/kg) (p<0.05); format: functional, Heart left ventricle
Rattus norvegicus [8] = test: Change in heart rate administered at 3200 ug/kg iv in anesthetized rats in presence of phentolamine (2 mg/kg); format: functional
Rattus norvegicus [9] = test: Change in heart rate administered at 6400 ug/kg iv in anesthetized rats in presence of propranolol (3 mg/kg) (p<0.05); format: functional
Rattus norvegicus [10] = test: Tested for the change in diastolic blood pressure administered at 1600 ug/kg iv in anesthetized rats in presence of hexamethonium (5 mg/kg) (p<0.05); format: functional, Artery
Rattus norvegicus [11] = test: Change in heart rate administered at 800 ug/kg iv in anesthetized rats in presence of hexamethonium (5 mg/kg) (p<0.05); format: functional
Rattus norvegicus [12] = test: Maximum rate of rise of the left ventricular isovolumetric pressure (dP/dt) administered at 800 ug/kg iv in anesthetized rats; format: functional, Heart left ventricle
Rattus norvegicus [13] = test: Change in heart rate administered at 3200 ug/kg iv in anesthetized rats in presence of hexamethonium (5 mg/kg) (p<0.05); format: functional
Rattus norvegicus [14] = test: Tested for the change in systolic blood pressure administered at 400 ug/kg intravenously in anesthetized rats; format: functional, Artery
Rattus norvegicus [15] = test: Tested for the change in diastolic blood pressure administered at 1600 ug/kg intravenously in anesthetized rats; format: functional, Artery
Rattus norvegicus [16] = test: Tested for the change in systolic blood pressure administered at 200 ug/kg intravenously in anesthetized rats in presence of spinalization under vagotomy; format: functional, Artery
Rattus norvegicus [17] = test: Tested for the change in diastolic blood pressure administered at 6400 ug/kg intravenously in anesthetized rats; format: functional, Artery
Rattus norvegicus [18] = test: Tested for the change in systolic blood pressure administered at 6400 ug/kg intravenously in anesthetized rats in presence of propranolol (3 mg/kg); format: functional, Artery
Rattus norvegicus [19] = test: Tested for the change in diastolic blood pressure administered at 6400 ug/kg iv in anesthetized rats in presence of hexamethonium (5 mg/kg) (p<0.05); format: functional, Artery
Rattus norvegicus [20] = test: Maximum rate of rise of the left ventricular isovolumetric pressure administered at 3200 ug/kg iv in anesthetized rats in presence of […] (3 mg/kg) (p<0.05); format: functional, Heart left ventricle
Rattus norvegicus [21] = test: Tested for the change in systolic blood pressure administered at 100 ug/kg iv in anesthetized rats in presence of spinalization under vagotomy; format: functional, Artery
Rattus norvegicus [22] = test: Change in respiratory frequency administered at 3200 ug/kg iv in anesthetized rats; format: functional
Rattus norvegicus [23] = test: Change in heart rate administered at 100 ug/kg iv in anesthetized rats in presence of spinalization under vagotomy; format: functional
Rattus norvegicus [24] = test: Maximum rate of rise of the left ventricular isovolumetric pressure administered at 200 ug/kg iv in anesthetized rats in presence of spinalization under vagotomy; format: functional, Heart left ventricle
Rattus norvegicus [25] = test: Tested for the change in systolic blood pressure administered at 800 ug/kg intravenously in anesthetized rats in presence of propranolol (3 mg/kg); format: functional, Artery
Rattus norvegicus [26] = test: Change in respiratory frequency administered at 800 ug/kg iv in anesthetized rats; format: functional
Rattus norvegicus [27] = test: Tested for change in systolic blood pressure administered at 4.12 uM/kg iv in anesthetized rats; format: functional, Artery
Rattus norvegicus [28] = test: Tested for the change in systolic blood pressure administered at 1600 ug/kg intravenously in anesthetized rats; format: functional, Artery
Rattus norvegicus [29] = test: Maximum rate of rise of the left ventricular isovolumetric pressure (dP/dt) administered at 3200 ug/kg iv in anesthetized rats; format: functional, Heart left ventricle
Rattus norvegicus [30] = test: Tested for the change in diastolic blood pressure administered at 50 ug/kg intravenously in anesthetized rats; format: functional, Artery
Rattus norvegicus [31] = test: Tested for the change in systolic blood pressure administered at 1600 ug/kg intravenously in anesthetized rats in presence of propranolol (3 mg/kg); format: functional, Artery
Rattus norvegicus [32] = test: Maximum rate of rise of the left ventricular isovolumetric pressure administered at 3200 ug/kg iv in anesthetized rats in presence of spinalization under vagotomy (p<0.05); format: functional, Heart left ventricle
Rattus norvegicus [33] = test: Tested for the change in systolic blood pressure administered at 6400 ug/kg intravenously in anesthetized rats; format: functional, Artery
Rattus norvegicus [34] = test: Change in heart rate administered at 1600 ug/kg iv in anesthetized rats in presence of hexamethonium (5 mg/kg) (p<0.05); format: functional
Rattus norvegicus [35] = test: Tested for change in diastolic blood pressure administered at 4.12 uM/kg iv in anesthetized rats; format: functional, Artery
Rattus norvegicus [36] = test: Tested for the change in systolic blood pressure administered at 800 ug/kg intravenously in anesthetized rats in presence of hexamethonium (5 mg/kg) (p<0.05); format: functional, Artery
Rattus norvegicus [37] = test: Tested for the change in systolic blood pressure administered at 3200 ug/kg intravenously in anesthetized rats; format: functional, Artery
Rattus norvegicus [38] = test: Maximum rate of rise of the left ventricular isovolumetric pressure administered at 3200 ug/kg iv in anesthetized rats in presence of phentolamine (2 mg/kg); format: functional, Heart left ventricle
Rattus norvegicus [39] = test: Change in respiratory frequency administered at 6400 ug/kg iv in anesthetized rats; format: functional
Rattus norvegicus [40] = test: Tested for the change in diastolic blood pressure administered at 1600 ug/kg iv in anesthetized rats in presence of propranolol (3 mg/kg); format: functional, Artery
Rattus norvegicus [41] = test: Maximum rate of rise of the left ventricular isovolumetric pressure (dP/dt) administered at 400 ug/kg iv in anesthetized rats; format: functional, Heart left ventricle
Rattus norvegicus [42] = test: Change in heart rate administered at 800 ug/kg iv in anesthetized rats in presence of phentolamine (2 mg/kg); format: functional
Rattus norvegicus [43] = test: Maximum rate of rise of the left ventricular isovolumetric pressure administered at 1600 ug/kg iv in anesthetized rats in presence of […] (3 mg/kg) (p<0.05); format: functional, Heart left ventricle
Rattus norvegicus [44] = test: Change in respiratory frequency administered at 50 ug/kg iv in anesthetized rats; format: functional

Structure (SMILES): COc1ccc(/C=C/C(=O)NCCCC/N=C(\N)NCC=C(C)C)cc1OC
- Heart rate (Rattus norvegicus [1]): 12 beats min-1
- Heart rate (Rattus norvegicus [2]): 3 beats min-1
- Blood pressure (Rattus norvegicus [3]): -11 mmHg
- Blood pressure (Rattus norvegicus [4]): -11 mmHg and -14%
- BP (Rattus norvegicus [5]): 25%
- dp/dt (Rattus norvegicus [5]): 1284 mmHg s-1
- Blood pressure (Rattus norvegicus [6]): -22 mmHg
- dp/dt (Rattus norvegicus [7]): 1447 mmHg s-1
- Heart rate (Rattus norvegicus [8]): 24 beats min-1
- Heart rate (Rattus norvegicus [9]): 11 beats min-1
- Blood pressure (Rattus norvegicus [10]): -9 mmHg
- Heart rate (Rattus norvegicus [11]): 5 beats min-1
- BP (Rattus norvegicus [12]): 41%
- dp/dt (Rattus norvegicus [12]): 2140 mmHg s-1
- Heart rate (Rattus norvegicus [13]): 9 beats min-1
- Blood pressure (Rattus norvegicus [14]): -15 mmHg and -18%
- Blood pressure (Rattus norvegicus [15]): -18 mmHg and -29%
- Blood pressure (Rattus norvegicus [16]): 0 mmHg
- Blood pressure (Rattus norvegicus [17]): -31 mmHg and -48%
- Blood pressure (Rattus norvegicus [18]): -35 mmHg
- Blood pressure (Rattus norvegicus [19]): -20 mmHg
- dp/dt (Rattus norvegicus [20]): 760 mmHg s-1
- Blood pressure (Rattus norvegicus [21]): 0 mmHg
- Frequency (Rattus norvegicus [22]): -41 beats min-1 and -39%
- Heart rate (Rattus norvegicus [23]): 0 beats min-1
- dp/dt (Rattus norvegicus [24]): 0 mmHg s-1
- Blood pressure (Rattus norvegicus [25]): -18 mmHg
- Frequency (Rattus norvegicus [26]): 25 beats min-1 and 24%
- Blood pressure (Rattus norvegicus [27]): -21 mmHg
- Blood pressure (Rattus norvegicus [28]): -21 mmHg and -26%
- BP (Rattus norvegicus [29]): 55%
- dp/dt (Rattus norvegicus [29]): 2984 mmHg s-1
- Blood pressure (Rattus norvegicus [30]): -5 mmHg and -8%
- Blood pressure (Rattus norvegicus [31]): -25 mmHg
- dp/dt (Rattus norvegicus [32]): 680 mmHg s-1
- Blood pressure (Rattus norvegicus [33]): -34 mmHg and -40%
- Heart rate (Rattus norvegicus [34]): 10 beats min-1
- Blood pressure (Rattus norvegicus [35]): -18 mmHg
- Blood pressure (Rattus norvegicus [36]): -5 mmHg
- Blood pressure (Rattus norvegicus [37]): -25 mmHg and -29%
- dp/dt (Rattus norvegicus [38]): 2627 mmHg s-1
- Frequency (Rattus norvegicus [39]): -87 beats min-1 and -80%
- Blood pressure (Rattus norvegicus [40]): -20 mmHg
- BP (Rattus norvegicus [41]): 33%
- dp/dt (Rattus norvegicus [41]): 1712 mmHg s-1
- Heart rate (Rattus norvegicus [42]): 17 beats min-1
- dp/dt (Rattus norvegicus [43]): 520 mmHg s-1
- Frequency (Rattus norvegicus [44]): 6 beats min-1 and 6%
